For one assay, the target named is His-AKT (Full Length) (Homo sapiens (Human), UniProt P31749). Put plainly: AKT enzyme assay. The format is biochemical. The note with it: 160 uM ATP, 90 min at 25° C. As for the experimental part: A TTP Mosquito liquid handling instrument was used to place 125 nl of the appropriate concentration of inhibitor in 100% DMSO (for a dose response curve calculation) into each well of a 384-well plate. To this reaction components were added to a final volume of 12.5 μl: • 0.1 ng/μl His-AKT (Full Length), (Invitrogen, Part # P2999, Lot #641228C). • 160 uM ATP (Fluka, 02055) • 1 mM DTT (Sigma, D0632) • 1 mM MgCl2 (Sigma, M1028) • 1 μM substrate peptide (sequence FITC-AHA-GRPRTSSFAEG-NH2), • synthesized by Tufts Peptide Synthesis service. • 100 mM HEPES pH 7.5 (Calbiochem, 391338) • 0.015% Brij-35 (Sigma, B4184)
Chain of His-AKT (Full Length) (P31749 whole entry): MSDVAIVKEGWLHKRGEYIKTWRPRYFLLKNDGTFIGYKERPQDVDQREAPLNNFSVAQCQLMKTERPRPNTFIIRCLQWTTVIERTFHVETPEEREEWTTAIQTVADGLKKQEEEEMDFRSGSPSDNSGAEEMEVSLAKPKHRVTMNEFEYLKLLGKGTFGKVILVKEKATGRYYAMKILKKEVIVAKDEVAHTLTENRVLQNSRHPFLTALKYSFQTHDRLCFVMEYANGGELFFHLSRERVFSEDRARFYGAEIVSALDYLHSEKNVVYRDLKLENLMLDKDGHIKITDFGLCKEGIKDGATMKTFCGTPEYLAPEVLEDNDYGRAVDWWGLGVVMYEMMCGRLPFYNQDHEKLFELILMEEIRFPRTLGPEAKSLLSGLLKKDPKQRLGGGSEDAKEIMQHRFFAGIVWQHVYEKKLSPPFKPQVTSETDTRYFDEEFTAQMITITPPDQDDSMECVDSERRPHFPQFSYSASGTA
The reaction was incubated for 90 min at 25° C., and then stopped by the addition of 70 μl of Stop buffer (100 mM HEPES pH 7.5, 0.015% Brij-35, 10 mM EDTA (Sigma, E7889)).
The plate was read on a Caliper LC 3000 in an Off-Chip mobility shift assay format, using the following parameters for a 12-sipper chip: screening pressure −2.3 psi, upstream voltage −500, and downstream voltage −3000. These conditions caused unphosphorylated substrate and phosphorylated product peptide to resolve as separate peaks allowing direct measurement of percentage of conversion of substrate to product. The percent conversion was plotted against concentration of inhibitor to produce a sigmoidal dose response curve, from which an IC50 was calculated.

Assay [1] has as its target P70S6K (T412E mutant, Millipore) (Homo sapiens (Human), UniProt P23443, T412E). Put plainly: P70S6K enzyme assay. The format is biochemical. The note with it: 24 μM ATP, 90 min at 25° C. The procedure:
P70S6K inhibitor compounds were diluted and plated in 96 well plates. A reaction mixture including the following components was then added to the compound plate to initiate the enzyme reaction; P70S6K (3 nM, T412E mutant, Millipore) was mixed with 24 μM ATP in an assay buffer containing 100 mM Hepes (pH 7.5), 5 mM MgCl2, 1 mM DTT, 0.015% Brij and 1 μM of the substrate peptide FITC-AHA-AKRRRLSSLRA-OH (derived from the S6 ribosomal protein sequence, FITC=fluorescein isothiocyanate, AHA=6-aminohexanoic acid). The reaction was incubated for 90 min at 25° C., before the addition of 10 mM EDTA to stop the reaction. The proportion of substrate and product (phosphorylated) peptide was analysed on a Caliper Life Sciences Lab Chip 3000, using a pressure of −1.4 psi, and upstream and downstream voltages of −3000 and −700 respectively. Product peaks were resolved before substrate peaks on the resulting chromatograms.

25 molecules from patent publication US10287300B2 (Merck Patent GmbH, priority 2012, dated 2019) can be followed below.

Chain of P70S6K (T412E mutant, Millipore) (P23443 whole entry T412E): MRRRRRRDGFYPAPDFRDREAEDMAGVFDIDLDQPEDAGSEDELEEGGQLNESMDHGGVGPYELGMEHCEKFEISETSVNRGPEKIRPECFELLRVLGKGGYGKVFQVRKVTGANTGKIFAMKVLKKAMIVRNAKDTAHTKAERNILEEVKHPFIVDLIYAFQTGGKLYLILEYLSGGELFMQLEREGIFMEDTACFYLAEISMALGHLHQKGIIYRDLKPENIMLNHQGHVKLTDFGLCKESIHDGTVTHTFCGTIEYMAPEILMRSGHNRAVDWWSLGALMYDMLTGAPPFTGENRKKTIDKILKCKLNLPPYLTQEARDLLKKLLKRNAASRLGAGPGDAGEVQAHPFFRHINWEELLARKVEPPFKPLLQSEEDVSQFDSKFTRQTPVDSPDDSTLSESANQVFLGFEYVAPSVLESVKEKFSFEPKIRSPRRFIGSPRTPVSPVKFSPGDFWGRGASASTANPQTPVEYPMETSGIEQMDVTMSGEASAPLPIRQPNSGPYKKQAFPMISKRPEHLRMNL

Regarding `NCC(c1ccc(C(F)(F)F)cc1)C1CCN(c2ccnc3c2CCCN3)CC1` (centres unmarked) [Compound A1, 2-(1-(5,6,7,8-tetrahydro-1,8-naphthyridin-4-yl)piperidin-4-yl)-2-(4-(trifluoromethyl)phenyl)ethanamine], the IC50 lay in the range of 101 to 500 nM against His-AKT (Full Length) and 25 to 100 nM in assay [1].
On the same counts, the results for `NCC(c1ccc(C(F)(F)F)cc1)C1CCN(c2ccnc3c2CCN3)CC1` (centres unmarked) [Compound A2, 2-(1-(2,3-dihydro-1H-pyrrolo[2,3-b]pyridin-4-yl)piperidin-4-yl)-2-(4-(trifluoro-methyl)phenyl)ethanamine] are 25 to 100 nM and 25 to 100 nM.
Turning to `NCC(c1ccc(C(F)(F)F)cc1)C1CCN(c2ccnc3c2CCC3)CC1` (centres unmarked) [Compound A3, 2-(1-(6,7-dihydro-5H-cyclopenta[b]pyridin-4-yl)piperidin-4-yl)-2-(4-(trifluoromethyl)phenyl)ethanamine], the IC50 (on His-AKT (Full Length); in assay [1]) was more than 1000 nM each time.
For `CN(C)CC(c1ccc(Cl)cc1)N1CCN(c2ncnc3c2OCCN3)CC1` (centres unmarked) [Compound A4, {2-(4-Chlorophenyl)-2-[4-(7,8-dihydro-6H-pyrimido[5,4-b][1,4]oxazin-4-yl)-piperazin-1-yl]-ethyl}-dimethylamine], the IC50 against His-AKT (Full Length) is 101 to 500 nM; in assay [1], more than 1000 nM.
`CN(C)CC(c1ccc(C(F)(F)F)cc1)N1CCN(c2ncnc3c2OCCN3)CC1` (centres unmarked) [Compound A5, [2-[4-(7,8-Dihydro-6H-pyrimido[5,4-b][1,4]oxazin-4-yl)-piperazin-1-yl]-2-(4-trifluoromethylphenyl)-ethyl]-dimethylamine]: the IC50 is 101 to 500 nM at His-AKT (Full Length) and more than 1000 nM in assay [1].
The corresponding values for `CN(C)CC(c1ccc(C(F)(F)F)cc1)N1CCN(c2ncnc3c2CCN3)CC1` (centres unmarked) [Compound A6, [2-[4-(6,7-Dihydro-5H-pyrrolo[2,3-d]pyrimidin-4-yl)-piperazin-1-yl]-2-(4-trifluoromethylphenyl)-ethyl]-dimethylamine] are 101 to 500 nM and 101 to 500 nM.
The corresponding values for `CN(C)CC(c1ccc(Cl)cc1)N1CCN(c2ncnc3c2CCN3)CC1` (centres unmarked) [Compound A7, {2-(4-Chlorophenyl)-2-[4-(6,7-dihydro-5H-pyrrolo[2,3-d]pyrimidin-4-yl)-piperazin-1-yl]-ethyl}-dimethylamine] are 101 to 500 nM and 101 to 500 nM.
The corresponding values for `CN(C)CC(c1ccc(Cl)cc1)N1CCN(c2ncnc3c2CCCN3)CC1` (centres unmarked) [Compound A8, {2-(4-Chlorophenyl)-2-[4-(5,6,7,8-tetrahydro-pyrido[2,3-d]pyrimidin-4-yl)-piperazin-1-yl]-ethyl}-dimethylamine] are 25 to 100 nM and 101 to 500 nM.
`CN(C)CC(c1ccc(C(F)(F)F)cc1)N1CCN(c2ncnc3c2CCCN3)CC1` (centres unmarked) [Compound A9, Dimethyl-[2-[4-(5,6,7,8-tetrahydro-pyrido[2,3-d]pyrimidin-4-yl)-piperazin-1-yl]-2-(4-trifluoromethyl-phenyl)-ethyl]-amine]: the IC50 (against His-AKT (Full Length); in assay [1]) was 25 to 100 nM each time.
As to `NCC(c1ccc(C(F)(F)F)cc1)N1CCN(c2ncnc3c2OCCN3)CC1` (centres unmarked) [Compound A10, 2-[4-(7,8-Dihydro-6H-pyrimido[5,4-b][1,4]oxazin-4-yl)-piperazin-1-yl]-2-(4-trifluoromethylphenyl)-ethylamine], the IC50 at His-AKT (Full Length) is 101 to 500 nM; in assay [1], 501 to 1000 nM.
On the same counts, the results for `NCC(c1ccc(Cl)cc1)N1CCN(c2ncnc3c2OCCN3)CC1` (centres unmarked) [Compound A11, 2-(4-Chlorophenyl)-2-[4-(7,8-dihydro-6H-pyrimido[5,4-b][1,4]oxazin-4-yl)-piperazin-1-yl]-ethylamine] are 101 to 500 nM and 501 to 1000 nM.
On the same counts, the results for `CN(C)CC(c1ccc(C(F)(F)F)c(F)c1)N1CCN(c2ncnc3c2OCCN3)CC1` (centres unmarked) [Compound A12, [2-[4-(7,8-Dihydro-6H-pyrimido[5,4-b][1,4]oxazin-4-yl)-piperazin-1-yl]-2-(3-fluoro-4-trifluoromethylphenyl)-ethyl]-dimethylamine] are 101 to 500 nM and 501 to 1000 nM.
As for `NCC(c1ccc(Cl)cc1)N1CCN(c2ncnc3c2CCN3)CC1` (centres unmarked) [Compound A13, 2-(4-Chloro-phenyl)-2-[4-(6,7-dihydro-5H-pyrrolo[2,3-d]pyrimidin-4-yl)-piperazin-1-yl]-ethylamine], the IC50 was 101 to 500 nM against His-AKT (Full Length) and 25 to 100 nM in assay [1].
For the molecule `NCC(c1ccc(F)cc1)N1CCN(c2ncnc3c2CCN3)CC1` (centres unmarked) [Compound A14, 2-[4-(6,7-Dihydro-5H-pyrrolo[2,3-d]pyrimidin-4-yl)-piperazin-1-yl]-2-(4-fluorophenyl)-ethylamine], the IC50 (on His-AKT (Full Length); in assay [1]) was 501 to 1000 nM in each case.
Regarding `CN(C)CC(c1ccc(Cl)c(F)c1)N1CCN(c2ncnc3c2CCN3)CC1` (centres unmarked) [Compound A15, {2-(4-Chloro-3-fluoro-phenyl)-2-[4-(6,7-dihydro-5H-pyrrolo[2,3-d]pyrimidin-4-yl)-piperazin-1-yl]ethyl}-dimethylamine], the IC50 (at His-AKT (Full Length); in assay [1]) was 101 to 500 nM each time.
Turning to `NCC(c1ccc(C(F)(F)F)cc1)N1CCN(c2ncnc3c2CCCN3)CC1` (centres unmarked) [Compound A16, 2-[4-(5,6,7,8-Tetrahydro-pyrido[2,3-d]pyrimidin-4-yl)-piperazin-1-yl]-2-(4-trifluoromethyl-phenyl)-ethylamine], the IC50 (against His-AKT (Full Length); in assay [1]) was 25 to 100 nM each time.
For `NCC(c1ccc(Cl)cc1)N1CCN(c2ncnc3c2CCCN3)CC1` (centres unmarked) [Compound A17, 2-(4-Chloro-phenyl)-2-[4-(5,6,7,8-tetrahydro-pyrido[2,3-d]pyrimidin-4-yl)-piperazin-1-yl]-ethylamine], the IC50 at His-AKT (Full Length) lay in the range of 25 to 100 nM; in assay [1], 101 to 500 nM.
On to `CN(C)CC(c1ccc(Cl)c(F)c1)N1CCN(c2ncnc3c2CCCN3)CC1` (centres unmarked) [Compound A18, {2-(4-Chloro-3-fluoro-phenyl)-2-[4-(5,6,7,8-tetrahydro-pyrido[2,3-d]pyrimidin-4-yl)-piperazin-1-yl]-ethyl}-dimethylamine], for which the values for the IC50 (against His-AKT (Full Length); in assay [1]) were 25 to 100 nM and 101 to 500 nM, respectively.
On the same counts, the results for `CN(C)CC(c1ccc(C(F)(F)F)c(F)c1)N1CCN(c2ncnc3c2CCCN3)CC1` (centres unmarked) [Compound A19, {2-(3-Fluoro-4-trifluoromethyl-phenyl)-2-[4-(5,6,7,8-tetrahydro-pyrido[2,3-d]pyrimidin-4-yl)-piperazin-1-yl]-ethyl}-dimethylamine] are 25 to 100 nM and 25 to 100 nM.
On the same counts, the results for `CN(C)CC(c1ccc(C(F)(F)F)c(F)c1)N1CCN(c2ncnc3c2CCN3)CC1` (centres unmarked) [Compound A20, [2-[4-(6,7-Dihydro-5H-pyrrolo[2,3-d]pyrimidin-4-yl)-piperazin-1-yl]-2-(3-fluoro-4-trifluoromethyl-phenyl)-ethyl]-dimethylamine] are 25 to 100 nM and 101 to 500 nM.
The corresponding values for `NCC(c1ccc(F)cc1)N1CCN(c2ncnc3c2CCCN3)CC1` (centres unmarked) [Compound A21, 2-(4-Fluoro-phenyl)-2-[4-(5,6,7,8-tetrahydro-pyrido[2,3-d]pyrimidin-4-yl)-piperazin-1-yl]-ethylamine] are 501 to 1000 nM and more than 1000 nM.
With `NCC(c1ccc(C(F)(F)F)cc1)C1CCN(c2ncnc3c2CCCN3)CC1` (centres unmarked) [Compound A22, 2-[1-(5,6,7,8-Tetrahydro-pyrido[2,3-d]pyrimidin-4-yl)-piperidin-4-yl]-2-(4-trifluoromethyl-phenyl)-ethylamine], the IC50 on His-AKT (Full Length) was 25 to 100 nM; in assay [1] it was 101 to 500 nM.
The corresponding values for `NCC(c1ccc(C(F)(F)F)cc1)C1CCN(c2ncnc3c2OCCN3)CC1` (centres unmarked) [Compound A23, 2-[1-(7,8-Dihydro-6H-pyrimido[5,4-b][1,4]oxazin-4-yl)-piperidin-4-yl]-2-(4-trifluoromethyl-phenyl)-ethylamine] are more than 1000 nM and more than 1000 nM.
The corresponding values for `CN(C)CC(c1ccc(F)cc1)N1CCN(c2ncnc3c2NC(=O)CN3)CC1` (centres unmarked) [Compound A24, 4-{4-[2-dimethylamino-1-(4-fluoro-phenyl)-ethyl]-piperazin-1-yl}-7,8-dihydro-5H-pteridin-6-one] are more than 1000 nM and more than 1000 nM.
Consider `CN(C)CC(c1cccc(F)c1)N1CCN(c2ncnc3c2NC(=O)CN3)CC1` (centres unmarked) [Compound A25, 4-{4-[2-dimethylamino-1-(3-fluoro-phenyl)-ethyl]-piperazin-1-yl}-7,8-dihydro-5H-pteridin-6-one], for which the IC50 (against His-AKT (Full Length); in assay [1]) was more than 1000 nM each time.
